Assay results from patent US20130274212A1, “Sesterterpene Compounds and Use Thereof” (SNU R&DB FOUNDATION, priority 2010, published 2013).

Assays:
LXR = assay: GAL-hLXRa or GAL-hLXRB luciferase reporter antagonist assay in CV-1 cells; type: cell-based, human; settings: LXR agonist T0901517 500 nM
Protocol: (§1) Animal cell line CV-1 was used in transfection search. Cells were cultured in DMEM medium within a cell incubator containing 5% carbon dioxide at 37° C. The medium contained 10% fetal bovine serum (FBS), 100 U/ml penicillin, and 100 μg/ml streptomycin. On day 1 of the experiment, CV1 cells were seeded in a 96-well plate at 5,000 cells/well. On day 2, the seeded cells were transfected with plasmid expressing GAL-hLXRa or GAL-hLXRB, plasmid expressing luciferase gene, and plasmid expressing β-galactosidase, by using a transfection reagent, Superfect (QIAGEN). After 16 hours, the transfected cells were treated with compounds of Chemical Formula I dissolved in dimethylsulfoxide (DMSO) by the concentrations (here, the final concentration of the LXR agonist, T0901517, was 500 nM). Cells treated with dimethylsulfoxide having the final concentration of 1% were used as a negative control group. After culturing for 24 hours, the cells were lysed by using a lysis buffer, and luciferin was added thereto to measure the luciferase activity by a luminometer. After addition of an ONPG reagent, β-galactosidase activity was measured by an ELISA reader. The measured luciferase value was corrected by the activity value of β-galactosidase. […] Accordingly, it was verified that the compounds of Chemical Formula I are antagonist compounds selective to LXR.

Nurr1 = Nurr1 (Mus musculus, UniProt Q06219); assay: GAL-mNurr1 luciferase reporter transfection assay in CV-1 cells; type: cell-based; settings: GAL-mNurr1, luciferase corrected by β-galactosidase, 24 hours
Protocol: as §1, with “GAL-mNurr1,” for “GAL-hLXRa or GAL-hLXRB,”, “β-galactosidase” for “β-galactosidase,”, “concentrations.” for “concentrations (here, the final concentration of the LXR agonist, T0901517, was 500 nM).”, “were” for “are antagonist”, “Nurr1.” for “LXR.”

[1] = test system: C57BL/6 mice administered with MPTP; assay: MPTP-induced Parkinson's disease mice, Rotarod exercise capacity; type: in vivo, mouse; settings: oral 5 mg/kg once per day for 5 days before MPTP 25 mg/kg; measured after 3 days
From the text: In the present example, in order to verify efficacy to prevent and treat Parkinson's Disease of the compound of Chemical Formula I according to the present invention in the Parkinson's Disease as one of neurodegenerative diseases, mice administered with 1-methyl-4-phenyl-1,2,3,6-tetrahydropyridine (MPTP) were used. The efficacy to prevent and treat the Parkinson's Disease was verified by administering the compound of Chemical Formula I (CMDD-X or Compound 7) to a Parkinson's Disease-induced disease model and then measuring exercise capacity of the mice. C57BL/6 mice (male, 12-week old) were used. The mice were adapted to a housing environment for 1 week while pellet type general diet was supplied, and then divided into 3 groups of 5 mice each to have similar body weights. Before MPTP administration, the compound CMDD-X was orally administered at a concentration of 5 mg/kg. After 3 hours, probenecid as MPTP efflux inhibitor was intraperitoneally administered to the mice at a concentration of 250 mg/kg, and, after 2 hours, 25 mg/kg of MPTP was intraperitoneally administered. Administration was conducted once per one day for a total of 5 days, and, after 3 days, exercise capacity of the mice was measured by using the Rotarod. […]

db/db mice = assay: Renal failure as diabetes complication: blood urea nitrogen in db/db mice; type: in vivo, mouse; settings: oral 10 mg/kg/day, 4 weeks
Protocol: In order to verify the efficacy to treat renal failure as a diabetes complication, a db/db disease animal model was used. 8-week old db/db mice were orally administered with the compound of Chemical Formula I (CMDD-X or Compound 7) at a dose of 10 mg/kg/day for 4 weeks, and then the blood urea nitrogen as a marker to treat renal failure was measured.

[2] = test system: BKS.Cg-+Lepr^db/+Lepr^db (db/db) mice; assay: Anti-diabetic efficacy in db/db mice (blood sugar, insulin, adiponectin, glucose and insulin tolerance); type: in vivo, mouse
Protocol: In the present example, in order to verify efficacy to prevent and treat diabetes of the compound of Chemical Formula I (CMDD-X or Compound 7) according to the present invention, BKS.Cg-+Lepr^db/+Lepr^db (db/db) mice as an insulin-independent diabetes animal model and general mice (C57BL/6J) fed with high-fat feedstuff were used. After the disease animal model was orally administered with CMDD-X, the diabetes-related index between the administered group and the control group was measured to verify the efficacy as an agent for preventing and treating diabetes. BKS.Cg-+Lepr^db/+Lepr^db (db/db) mice (male, 7-week old) as type 2 diabetes animal model were purchased and used. The experiment animals were adapted to a housing environment for 1 week while pellet type general diet (lab-chow) was supplied, and then divided into 2 groups of 18 mice each by randomized block design to have similar blood sugar and body weight. For general mice fed with high-fat feedstuff as another animal model, 6-week old C57BL/6J mice was purchased, and then were adapted to a lap environment for 2 weeks. After that, high-fat diet containing 35% fat diet (weight ratio, Research Diets. Co. Ltd.) was supplied for 14 weeks. The efficacy to prevent and treat diabetes by CMDD-X was observed through oral administration. A mouse fed with only 0.5% carboxylmethyl cellulose, as a medicine delivery, was used as a negative control group. The medicine was orally administered to the db/db mice for 4 weeks, a total of 28 days, and to the C57BL/6J mice, which was fed with the high-fat diet, for the last 6 weeks, at a dose of 10 mg/kg/day. The experiment animals after administration were fasted for 15 hours before autopsy, and then the blood taken from the orbital venous treated with heparin. […] The other organ tissues were rapidly cooled in the liquid nitrogen immediately after removal thereof, and kept at −70° C. and then analyzed. T-test was conducted with respect to the control group and the administered group, a significant difference of less than 5% (P<0.05) was determined as having have a statistical significance.
In order to measure the blood sugar reduction efficacy of the compound of Chemical Formula I (CMDD-X or Compound 7), the blood was collected through tail veins of the db/db mice before experiment ending, after feeding, and after stomach was empty for 15 hours, and the blood sugar was measured by using a glucose oxidase method. […]
The insulin and adiponectin concentrations of the plasma, obtained from the orbital venous of the db/db mice orally administered with CMDD-X (or Compound 7) for 4 weeks, were measured by using an Elisa Kit. […]

[3] = test system: Gyk, LXR, SREBP1c, SCD1, PPARa, UCP gene expression; assay: Gene expression analysis (micro-array, Q-RT PCR) in diabetic mice fed with compound; type: in vivo, mouse
Protocol: Gene expression analysis was conducted to establish the mechanism. The gene analysis was conducted by using micro-array and the Q-RT PCR method. […] Expressions of PPARa and UCP, which are genes for burning the newly generated fat to release heat, were increased (FIG. 13).

Chain of Nurr1 (Q06219 360-598 limits assumed): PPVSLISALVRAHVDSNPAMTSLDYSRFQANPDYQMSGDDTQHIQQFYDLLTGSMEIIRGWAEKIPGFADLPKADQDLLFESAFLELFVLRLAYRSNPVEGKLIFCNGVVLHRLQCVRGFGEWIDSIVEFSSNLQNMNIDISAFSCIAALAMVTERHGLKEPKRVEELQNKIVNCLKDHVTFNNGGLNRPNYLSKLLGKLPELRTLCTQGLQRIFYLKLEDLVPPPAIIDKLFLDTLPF

Structure (SMILES): CC(C)=CCC/C(C)=C/[C@@H]1CC(C)=C[C@]2(C=C(COS(=O)(=O)c3ccc(C)cc3)[C@H]3CC(=O)C(C)=C[C@H]3O2)O1 [Compound 1]
- IC50 (LXR): 21 nM
- EC50 (Nurr1): 28 nM

Structure (SMILES): CC(C)=CCC/C(C)=C/[C@@H]1CC(C)=C[C@]2(C=C(C=O)[C@H]3CC(=O)C(C)=C[C@H]3O2)O1 [Compound 4]
- IC50 (LXR): 5 nM
- EC50 (Nurr1): 7 nM

Structure (SMILES): CC(C)=CCC/C(C)=C/[C@@H]1CC(C)=C[C@]2(C=C(CF)[C@H]3CC(=O)C(C)=C[C@H]3O2)O1 [Compound 7]
- IC50 (LXR): 11 nM
- EC50 (Nurr1): 32 nM
- exercise capacity (Rotarod) [1]: the same results as CMDD-X
- efficacy on renal failure (blood urea nitrogen) (db/db mice): somewhat superior efficacy as compared with CMDD-X
- insulin tolerance test: final blood sugar decreased as compared with the control group ([2]; insulin 3 unit/kg): 58%
- blood sugar after food intake, lower than that of the control group ([2]; oral 10 mg/kg/day, 4 weeks): 27%
- blood sugar at the time of an empty stomach, reduction ([2]; oral 10 mg/kg/day, 4 weeks, fasted 15 hours): 28%
- blood insulin concentration, relative to that of the control group ([2]; oral 10 mg/kg/day, 4 weeks, plasma, Elisa Kit): 73%
- expressions of LXR, SREBP1c, and SCD1 [3]: very increased
- expression of Gyk (glycolysis biomarker), increase ([3]; micro-array and Q-RT PCR): 1.3 times

Structure (SMILES): C#CCOCC1=C[C@]2(C=C(C)C[C@@H](/C=C(\C)CCC=C(C)C)O2)O[C@@H]2C=C(C)C(=O)C[C@H]12 [Compound 8]
- IC50 (LXR): 85 nM
- EC50 (Nurr1): 25 nM
